From patent publication US20250000907A1, “ENGINEERED IMMUNE CELLS WITH REDUCED SIRT6 EXPRESSION” (H. LEE MOFFITT CANCER CENTER AND RESEARCH INSTITUTE, INC., priority 2021, published 2025) come the findings set out here.

Holding throughout (format): cell-based, mouse
The test system of experiment [1] is activated CD3+ T cells. Description: Western blot analysis of activated T cells. As for the experimental part: Whole cell lysates were prepared using lysis buffer (Pierce RIPA buffer, Thermo Fisher Scientific) supplemented with Complete™ protease inhibitor cocktail and PhosSTOP phosphatase inhibitor cocktail (Roche Applied Science).
Cell lysates (20 μg) or IP samples were loaded onto 10% SDS-PAGE and separated by electrophoresis followed by semi-dry transfer into polyvinylidene fluoride membranes (Immun-Blot® PVDF membrane, Bio-Rad) using Trans-Blot Turbo transfer system (Bio-Rad). After transfer, the membranes were blocked at room temperature with Tris-buffered saline (TBS) containing 0.05% Tween-20 (TBST) and 5% (w/v) non-fat dry milk for 1 hour and then incubated overnight at 4° C. with a specific primary antibody (indicated below). The membranes were washed three times with TBST and then incubated for 1 hour with horseradish peroxidase (HRP)-conjugated goat […] IgG H&L (Abcam, #ab97051, 1:3,000) for regular western blotting analysis, or HRP-conjugated mouse anti-rabbit IgG light-chain specific (Cell Signaling, #93702, 1:1,000) for IP samples. After washing 3 times with TBST, bound antibodies were detected by chemiluminescence using the Pierce™ ECL Western Blotting Substrate and the Super Signal West Femto Maximum Sensitivity Substrate kits (Thermo Fisher Scientific). Image acquisition was performed with the Amersham imager 600 system (GE Healthcare Bio-Sciences).
Immunoblotting was performed using primary antibodies against: Sirt6, H3K9, acetylated-H3K9 and c-Myc (#9402, 1:1,000) from Cell signaling, LDH (#ab52488, 1:5,000), PFKP (#ab204131, 1:2,000), HK1 (#ab150423, 1:1,000), HIF-1α and beta-Actin from Abcam

Experiment [2] has as its system activated CD3+ T cells. Description: Seahorse extracellular flux analysis (ECAR/OCR) of activated CD3+ T cells. On the procedure:
Spleens and/or lymph nodes (LN) were collected from C57BL/6J, Pmel and OT-II mice and were processed into single-cell suspensions. CD3+, CD4+ and CD8+ T cells were negatively enriched using Mouse Pan T cell, CD4^+ T cell and CD8^+ T Cell Isolation Kits™, respectively according to the manufacturer's instructions. The purity of the isolated cells was confirmed by flow cytometry (>95%). Purified T cells were cultured in complete RPMI 1640 medium (Thermo Fisher Scientific) supplemented with 10% (vol/vol) fetal bovine serum (FBS, Biowest) and 1% (vol/vol) penicillin/streptomycin (P/S, Thomas Scientific Inc.). T cells were activated with plate-bound anti-CD3 antibody (5 μg/ml, 145-2C11, BioXCell) for the indicated time periods. […]
Extracellular acidification rate (ECAR) and oxygen consumption rate (OCR) were measured using the Seahorse XF analyzer (Agilent technologies). […] For GST, ECAR and OCR were measured under basal conditions and in response to 10 mM glucose, 1 μM oligomycin and 50 mM 2-DG successively to calculate basal glycolytic rate, glycolytic capacity (in response to oligomycin), and glycolytic reserve (glycolytic capacity-basal rate). […] Results were normalized to total protein quantified using Pierce™ BCA Protein Assay Kit (Thermo Fisher Scientific).

Experiment [3] relates to stimulated CD8+ T cells from WT vs. Sirt2−/− Pmel mice. As to the kind of experiment: IFN-γ ELISPOT assay of stimulated CD8+ T cells from WT vs. Sirt2−/− Pmel mice. Conditions: FIG. 3C. On the procedure:
(§1) FIG. 3: Sirtuins in the immune system. A, WB of Sirt1-3,5-7 expression in activated CD3+ T cells from WT vs. Sirt2−/− mice. ECAR measured by Seahorse analyzer (B) and IFN-γ ELISPOT assay (C) in stimulated CD8+ T cells from WT vs. Sirt2−/− Pmel mice treated with vehicle (Ctl), or Sirt6 inhibitor (Sirt6i). *P<0.05, **P<0.01, ****P<0.0001.
The number of IFN-γ producing cells was evaluated in an ELISPOT assay. Briefly, mouse TILs were plated at 1×10^5 cells and co-cultured with 1×10^3 irradiated B16F10 tumor cells (50 Gray) in the presence of the indicated concentrations of OSS, in a 96-well nitrocellulose flat-bottomed plate (ELISPOT plate, Millipore) pre-coated with an anti-mouse IFN-γ antibody (AN-18, Mabtech, Inc.) and incubated for 48 hr at 37° C. For Pmel T cells, splenocytes were first stimulated with gp100 (1 μg/ml, Anaspec) for 48 hr in the presence of the indicated concentrations of OSS and then transferred to the ELISPOT plate pre-coated with an anti-mouse IFN-γ antibody (AN-18, Mabtech, Inc.) for an additional 48 hr. […] After washing steps and successive biotinylated anti-IFN-γ antibody (R4-6A2, Mabtech, Inc.) and Streptavidin-HRP (BD Bioscience) labeling, spots were detected using AEC Substrate Kit (BD Biosciences) and counted using an AID ELISPOT Reader System (Autoimmun Diagnostika GmbH).

Experiment [4] shares this test system. Description: Seahorse ECAR of stimulated CD8+ T cells from WT vs. Sirt2−/− Pmel mice. Conditions: FIG. 3B. On the procedure: as §1
Extracellular acidification rate (ECAR) and oxygen consumption rate (OCR) were measured using the Seahorse XF analyzer (Agilent technologies). Glycolysis Stress Test (GST) and mitochondrial stress test (MST) were purchased from Agilent technologies and performed according to the kit manufacturer's instructions. […] For GST, ECAR and OCR were measured under basal conditions and in response to 10 mM glucose, 1 μM oligomycin and 50 mM 2-DG successively to calculate basal glycolytic rate, glycolytic capacity (in response to oligomycin), and glycolytic reserve (glycolytic capacity-basal rate). For MST, OCR and ECAR were measured under basal conditions and in response to sequential injections of 1 μM oligomycin, 1 μM FCCP (Carbonyl cyanide 4-trifluoromethoxyphenylhydrazone) and 0.5 μM rotenone/antimycin A to calculate basal respiration rates (baseline OCR-rotenone/antimycin A OCR), maximal respiration (FCCP OCR-rotenone/antimycin A OCR), and oxidative reserve (maximum respiration rate-basal respiration rate). […]

Setting [5] is: activated CD3+ T cells, WB, FIG. 8J.
Where [6] appears, read: activated T cells, Sirt6i vs. vehicle.

On to `O=C(Nc1ccc(O)c(C(=O)O)c1)c1cccc(NC(=O)c2ccco2)c1` [OSS_128167], for which, in experiment [1] (setting [5]), the “Glut1 protein expression levels” value is given as “upregulation”, the “HK1 protein expression levels” value was “upregulation”, the “LDHA protein expression levels” value is recorded as “upregulation” and the “PFKP protein expression levels” value was “upregulation”. Also, in experiment [1] (activated T cells, FIG. 8D), the H3K9 acetylation levels result was “increased”, the HIF-1α expression levels entry is “no effect” and the c-Myc expression levels result was “no effect”. In addition, the “glycolytic flux (ECAR)” value in experiment [2] (CD3-stimulated CD3+ T cells, OSS 25 μM or 50 μM vs. vehicle (DMSO), FIG. 6A) is recorded as “profoundly increased”. Also, the “SRC in response to the mitochondrial decoupling agent (FCCP) (OCR)” value in experiment [2] (activated T cells, pharmacologic inhibition, FIG. 6G) is listed as “increase”. Also, in experiment [3] (Sirt2−/− Pmel CD8+ T cells), the “effect on effector function (IFN-γ ELISPOT) with Sirt2 deficiency” value is reported as “potentiated”. In addition, the “effector function of T cells (IFN-γ ELISPOT)” value in experiment [3] (setting [6]) is “increases”. Also, the “effect on metabolic activity (ECAR) with Sirt2 deficiency” value in experiment [4] (Sirt2−/− Pmel CD8+ T cells) is “potentiated”. Also, the “metabolic activity of T cells (ECAR)” value in experiment [4] (setting [6]) is given as “increases”.
